From ChEMBL document CHEMBL3085757, “Pyrazole scaffold: a remarkable tool in the development of anticancer agents” (Eur J Med Chem, 2013)

Tested on: Artemia salina
Test: Cytotoxicity against brine shrimp
Assay type: functional, organism-based

| SMILES | IC50 [ppm] |
| --- | --- |
| CC1=NN(c2ccc(Br)cc2Br)C(=O)/C1=N\NC(N)=S | 36 |
| CC1=NN(c2ccc(Br)cc2Br)C(=O)C1=O | 36 |
| CC(=O)NNC1=NN(C(C)=O)C2(O1)C(=O)N(c1ccc(Br)cc1Br)N=C2C (centres undefined) | 20 |
| CC(=O)NC1=NN(C(C)=O)C2(S1)C(=O)N(c1ccc(Br)cc1Br)N=C2C (centres undefined) | 19.5 |
